Earlier results in patent publication US8496914B2, “Antibacterial oral rinse formulation for preventing coronary artery disease” (priority 2005, dated 2013).

Legend:
[1] = tested on: Staphylococcus aureus, Staphylococcus epidermidis and Propionibacterium acnes; settings: Raman et al. 1995
Staphylococcus aureus = settings: Williams et al. 1997

| Compound | inhibition of three bacterial strains [1] | activity against Staphylococcus aureus (Staphylococcus aureus) |
| --- | --- | --- |
| CC1=CCC(C(C)(C)O)CC1 (stereo not drawn) [alpha-terpineol] | inhibit |  |
| CC1=CCC2CC1C2(C)C (stereo not drawn) [alpha-pinene] | inhibit |  |
| CC1=CCC(O)(C(C)C)CC1 (stereo not shown) [terpinen-4-ol] | inhibit | equally effective |
